How the values were obtained:
[1] = Stability towards oxygen (powder and in aqueous and organic solvents; HPLC and TLC analysis); assay type: physicochemical
Excerpt: In fact, this molecule is not changed by remaining in an aqueous solvent exposed to air for several days.

[2] = tested on: human intestinal cells (CACO2); assay: Toxicity on human intestinal cells (CACO2); assay type: cell-based
Protocol: (§1) Coetenteramine was applied to primary cultures of rat hepatocytes cultured in microplates (20,000 cells per well, 200 μl ). The doses of CLM ranged from 1.3×10^−5 to 5×10^−4 M. After a period of 24 hours, their survival was evaluated by measuring the contents of total proteins in each well (Bradford method). […] Similar results were obtained on human fibroblasts (MRC-5) and human intestinal cells (CACO2).

[3] = tested on: low-density lipoproteins (LDL); assay: In vitro oxidation of LDL induced by AAPH (joint dienes, absorbance at 234 nm); assay type: biochemical; details: increasing concentrations of CLM, 37° C.
Excerpt: (§2) Oxidation of the polyunsaturated fatty acids of LDL is accompanied by the formation of joint dienes, which have a maximum absorbance at 234 nm. These joint dienes result from rearrangement of the double bonds of polyunsaturated fatty acids following removal of a […] hydrogen. The increase in the absorption of joint dienes can be measured directly in solution without resorting to extraction of the lipids. A latency phase during which few dienes are produced, a propagation phase during which the absorbance at 234 nm increases rapidly to reach a plateau and a decomposition phase where the aldehydes formed also absorb in the region of 210-240 nm, thus producing a new increase in the absorbance at 234 nm, are observed in succession. Measurement of the conjugated dienes currently seems to be the best indicator of the oxidizability of LDL if pure LDL preparations are available (Esterbauer et al. (1989)). […]
(§3) To measure the joint dienes, a solution of LDL (final concentration of 50 μg protein/ml PBS buffer, pH 7.4) is incubated in the presence of 5 μM copper or […] and in the absence or in the presence of varying concentrations of CLM in a quartz cell with an optical path of 1 cm. The absorbances at 234 nm of various samples are measured as a function of time on a UV-visible spectrophotometer (DU-8, Beckman). […]

fibroblasts = assay: Resistance of fibroblasts subjected to t-BHP (MTT cytotoxicity curve); assay type: cell-based; details: 10^−5 M CLM, MTT test
Excerpt: FIG. 5 illustrates the increase in the resistance of fibroblasts subjected to the action of t-BHP by means of 10^−5 M CLM.

rat hepatocytes [4] = assay: Toxicity on primary cultures of rat hepatocytes (24 h, total proteins, Bradford method); assay type: cell-based; details: 1.3×10^−5 to 5×10^−4 M CLM
Protocol: as §1

[5] = tested on: human fibroblasts (MRC-5); assay: Toxicity on human fibroblasts (MRC-5); assay type: cell-based
Protocol: as §1

hepatocytes = assay: Protection of hepatocytes subjected to nitrofurantoin (MTT survival); assay type: cell-based, rat; details: 3×10^−4 M NF for 6 hours, 5×10^−5 M CLM, MTT method, % of the controls
Protocol: (§4) Primary cultures of hepatocytes were subjected to the action of tert-butyl hydroperoxide (t-BHP) and nitrofurantoin (NF). The action of t-BHF is associated with its direct oxidizing power, while the action of NF results from the production of superoxide anions during its metabolization by the cytochrome P450 of cells.
FIG. 4 illustrates the survival of hepatocytes subjected to the action of 3×10^−4 M NF for 6 hours. At the end of this treatment, the survival (estimated by the MTT method) was 18% in the control groups. If CLM is added to the culture medium, the survival of the hepatocytes increases regularly, to reach 70% of the controls at 5×10^−5 M CLM.

rat hepatocytes [6] = assay: Protection of hepatocytes treated with t-BHP (LDH release, mortality); assay type: cell-based
Protocol: as §4
The mortality, which is 75% in the controls, reaches only a few % in the presence of 50 μM CLM.

[7] = tested on: human low-density lipoproteins; assay: In vitro oxidation of LDL by copper (joint dienes at 234 nm; TBARS); assay type: biochemical
Excerpt: as §2, §3

In the case of `Nc1ncc(-c2ccc(O)cc2)nc1Cc1ccccc1` [Coelenteramine], the “degradation product identified by HPLC and TLC” value ([1]; aqueous solvent exposed to air for several days) is reported as “no degradation product”, the stability towards oxygen ([1]; powder and after solubilization in aqueous and organic solvents) is reported as “excellent stability towards oxygen” and the toxicity [2] is reported as “absence of toxicity”. The “appearance of joint dienes in the oxidation of LDL by AAPH” value [3] was “significant slowing down in the appearance of joint dienes”, the “cytotoxicity curve of t-BHP” value (fibroblasts) was “significant displacement of the cytotoxicity curve” and the “toxicity (percentage survival of controls)” value (rat hepatocytes [4]) was “not at all toxic”. For the same molecule, the toxicity [5] was “absence of toxicity”, the survival of hepatocytes (hepatocytes) was 70% and the mortality (rat hepatocytes [6]; 50 μM CLM) was “only a few %”. The “release of lactate dehydrogenase (LDH)” value (rat hepatocytes [6]; CLM 10 and 50 μM) was “reduction in the release of lactate dehydrogenase”, the “protective action on LDL with respect to oxidation by copper” value ([7]; 5 μM copper, 30° C.) was “significant protective action” and the “appearance of TBARS (MDA) in the oxidation of LDL” value ([7]; human LDL oxidized by Cu2+, as a function of time) was “delay in the appearance of TBARS”.
